# From patent publication US7294715B2, “Aporphine and oxoaporphine compounds and pharmaceutical use thereof” (Lotus Pharmaceutical Co., Ltd., priority 2003, dated 2007)
# Marks after values point to notes of the source that are not given here.
# Columns and labels:
# [1] = tested on: regional myocardial ischemia and reperfusion (LAD occlusion); assay: Infarct size in a rat model of regional myocardial ischemia and reperfusion; format: in vivo; settings: rat, LAD occlusion 25 min, reperfusion 2 h; 0.5 mg/kg i.v.; vehicle 58±2%; P<0.05 vs vehicle
# Procedure: Seventy two male Wistar rats (215-300 g, Charles River, Margate, U.K.) were anaesthetized with thiopentone sodium (Intraval®, 120 mg/kg i.p.; Rhone-Merrieux, Essex, U.K.). The rats were tracheotomised and ventilated with a Harvard ventilator (70 strokes/min, tidal volume: 8-10 ml/kg, inspiratory oxygen concentration: 30%). Body temperature was maintained at 38±1° C. The right carotid artery was cannulated and connected to a pressure transducer (MLT 844, AD Instruments Ltd, Hastings, UK) to monitor mean arterial blood pressure and heart rate, which were continuously recorded on a data acquisition system (Powerlab® Version 4.0.4, AD Instruments, Hastings, UK) installed on a Dell Dimension 4100 personal computer, throughout the experiment. The right jugular vein was cannulated for the administration of test compound and Evans Blue dye (at the end of the experiment). A parasternal thoracotomy was performed, the heart was suspended in a temporary pericardial cradle and a snare occluder was placed around the left anterior descending coronary artery (LAD). After completion of the surgical procedure the animals were allowed to stabilize for 30 min before LAD ligation. The coronary artery was occluded at time 0 by tightening of the occluder. After 25 min of acute myocardial ischemia, the occluder was released to allow reperfusion for 2 h.
# The test compounds were administered as a slow intravenous injection (i.v.) 5 min prior to the onset of reperfusion of the ischemic heart. Following the 2 h reperfusion period, the coronary artery was re-occluded and Evans Blue dye (1 ml of 2% w/v) was injected into the left ventricle, via the right jugular vein cannula, to distinguish between perfused and non-perfused (AAR) sections of the heart. The Evans Blue solution stains the perfused myocardium, while the occluded vascular bed remains uncolored. The animals were sacrificed with an overdose of anesthetic and the heart excised. The heart was sectioned into slices of 3-4 mm thick, the right ventricular wall was removed, and the AAR (pink) was separated from the non-ischemic (blue) area. […]
# eNOS = assay: Western blot analysis for eNOS protein in ischemia-reperfusion rat heart; format: in vivo; settings: ischemia 25 min, reperfusion 2 h, 0.5 mg/kg at 5 min prior to reperfusion, P<0.05 vs vehicle
# Procedure: To elucidate the effects of the test compounds on the infarct size caused by regional myocardial ischemia and reperfusion, all animals were randomized into 8 study groups. The first group (Sham) comprised of animals not subjected to regional myocardial ischemia (25 min) followed by reperfusion (2 h) and treated with vehicle (1 ml/kg) 5 minutes prior to the onset of reperfusion. The second group of animals were subjected to regional myocardial ischemia (25 min) followed by reperfusion (2 h) and were treated with vehicle (saline, 1 ml/kg). […]
# Hearts were pulverized at −80° C. using liquid nitrogen and a stainless steel pestle and mortar. […] Total protein concentrations were determined using the Bradford method (Bio-Rad, UK). […] Signals were detected using the enhanced chemiluminescence (ECL™) detection system (Cell Signaling Technology, U.S.A.) and autoradiographic film. For quantification of protein expression all blots were reprobed for muscle α-actin expression using 1/2000 dilution of a mouse anti-human actin (muscle antibody (Serotec), followed by incubation with a goat anti-mouse HRP linked secondary antibody ( 1/2000 dilution) (DakoCytomation, Denmark). Densitometry analysis was performed on scanned images (Hewlett Packard Scanjet) and analyzed using Scion Image (Scion Corp, National Institutes of Health, Bethesda, Md.).
# [2] = tested on: Langendorff perfused rat hearts; assay: Coronary flow in Langendorff perfused rat hearts; settings: FIG. 3
# Procedure: Adult male Wistar rats weighing 275-325 g, were intraperitoneally anesthetized with sodium pentobarbital (50 mg·kg^−1) and given heparin (300 Ukg·kg^−1) by the same route. Hearts were rapidly excised and immersed in 37° C. perfusion medium. The aorta was cannulated and retrograde-perfused at 80 mmHg with Tyrode's solution containing 120 mM NaCl, 25 mM NaHCO3, 3 mM KCl, 1.2 mM NaH2PO4, 2.5 mM CaCl2, 1.2 mM MgCl2, and […] 5.5 mM glucose. The perfusate was equilibrated with 95% O2, 5% CO2 at 37° C. Perfusion pressure was monitored using a MLT844/D pressure transducer (Capto, Horten, Norway) connected to a PowerLab (ADInstruments, Castle Hill, Australia). The coronary effluent was collected for the measurement of coronary flow.
# [3] = tested on: focal cerebral ischemia-reperfusion rats; assay: Striatal blood flow in focal cerebral ischemia-reperfusion rats (laser Doppler flowmetry); format: in vivo, rat; settings: 40-min common carotid occlusion plus endothelin-1, 24-hrs reperfusion, FIG. 4
# [4] = Serum glucose levels in NIDDM animals; format: in vivo, mouse; settings: NIDDM rats, n=5, vehicle 0
# MCAO rats = assay: Middle cerebral artery occlusion (MCAO) cerebral ischemia lesions in rats; format: in vivo, rat; settings: for Infarcted Volume (X ± SEM mm^3): vehicle D.W. 214.75 ± 26.37
# Text: The same effects of preventing the ischemia-reperfusion damages with aporphine and oxoaporphine compounds also found in the other organs, such as brain. After Compound 16 or Compound 21, which is a compound of Formula B (where R1, R2, R5, R6 are OMe, R3, R4, R7 are H) was administrated to male Sprague Dawley rats, the effects of test compounds on the artery occlusive cerebral ischemia in the rats were monitored. First, permanent brain ischemia was induced by middle cerebral artery occlusion (MCAO) in the rats. At 0, 6, 24, 48, and 54 hours after the formation of middle cerebral artery occlusion (MCAO), Group I (i.e., the control group) animals were given the solvent (100% DMSO) (1 ml/kg, i.p.); Group II (i.e., the control group) animals were given the distilled water (D.W.) (1 ml/kg, i.p.);Group III animals (NCM-121) were given Compound 16 (1.5 mg/kg, i.p.); Group IV animals (NCM-124) were given Compound 21 (1.7 mg/kg, i.p); Group V animals were given MK-801 (0.3 mg/kg, i.p.), an antagonist of the N-methyl-D-aspartic acid (NMDA) receptor. There were ten rats in each group. Four days after the formation of MCAO, all the rats were sacrificed. Brain sections were made and stained with 2% cresol purple. The areas and volumes of cerebral ischemia lesions in each section were recorded.
compound,measurement,setting,value
"COc1cc2c(cc1OC(C)C)C(=O)C1c3c(cc(OC(C)C)c(OC)c3-2)CCN1C (stereo not drawn) [Compound 3, 2,9-Diisopropyloxy-1,10-dimethoxy-7-oxoaporphine]",melting point,,82 to 84 °C
"COc1cc2c(cc1O)C(=O)C1c3c(cc(OC(C)C)c(OC)c3-2)CCN1C (stereo not drawn) [Compound 4, 9-hydroxy-2-isopropyloxy-1,10-dimethoxy-7-oxoaporphine]",melting point,,240 to 242 °C
"COc1ccc2c(c1)-c1c(OC)ccc3c1C(C2=O)N(C)CC3 (stereo not drawn) [Compound 7, 1,10-dimethoxy-7-oxoaporphine]",melting point,,162 to 164 °C
COc1cc2c(cc1OC)-c1c(O)c(OC)cc3c1C(C2)N(C)CC3 (stereo not drawn) [Compound 20],infarct size,[1],34±4 % of the area at risk
same,reduction in eNOS protein expression caused by ischemia and reperfusion,eNOS,significantly reduced
same,coronary blood flow,[2],increasing coronary blood flow
same,blood flow in brain (striatal blood flow),[3],increase in blood flow in brain
same,serum glucose Percentage of change (%),"[4]; 3 mg/kg × 3 days, iv, 90 minutes after last dose vs pre-treatment",12 ± 3.5%
COc1cc2c(cc1OC)-c1c(OC)c(OC)cc3ccnc(c13)C2=O [Compound 21],Infarcted Volume (X ± SEM mm^3),"MCAO rats; IP 1.7 mg/kg × 6, N=10, four days after MCAO",133.75 ± 19.57* mm^3
same,% Decrease in total volume of ischemic lesions,"MCAO rats; IP 1.7 mg/kg × 6, vs Group II vehicle (D.W.)",37.72%
same,effects in reducing the areas and volumes of cerebral ischemia lesions as compared with MK-801,MCAO rats; comparison in words,more significant effects
same,coronary blood flow,[2],increasing coronary blood flow
"C[C@]12N[C@H](Cc3ccccc31)c1ccccc12 [MK-801, reference compound]",Infarcted Volume (X ± SEM mm^3),"MCAO rats; IP 0.3 mg/kg × 6, N=10, four days after MCAO",47.34 ± 13.79* mm^3
same,% Decrease in total volume of ischemic lesions,"MCAO rats; IP 0.3 mg/kg × 6, vs Group II vehicle (D.W.)",77.96%
"CN(C)C(=N)N=C(N)N [Metformin, reference compound]",serum glucose Percentage of change (%),"[4]; 100 mg/kg × 3 days, po",39 ± 1.6%
